PubChem BioAssay (NCI)
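A five-concentration, 48-hour dose response in 96-well plates underlies each endpoint, interpolated linearly between surrounding concentrations. The concentration for full growth arrest is given as TGI.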

Assays:
Assay in all cases: NCI tumour cell line growth inhibition, 48 h
[1] = test system: MOLT-4 leukemia
[2] = test system: SK-MEL-28 melanoma
[3] = test system: A549 NSCLC
[4] = test system: HCT-116 colon
[5] = test system: SNB-75 CNS
[6] = test system: A498 renal
[7] = test system: COLO 205 colon
[8] = test system: UO-31 renal

SMILES | TGI [1] | TGI [2] | TGI [3] | TGI [4] | TGI [5] | TGI [6] | TGI [7] | TGI [8]
COc1ccccc1N1C(=O)CSC1c1cccc(Oc2ccccc2)c1 (stereo unspecified) | 64.8 µM | 34.6 µM | 47.4 µM | 31.5 µM | 41.7 µM | 36.6 µM | 34.9 µM | 32.9 µM
Cc1cc2c3c(nc2c2cc[nH]c(C)c12)CCCC3 | 4.32 µM | 3.57 µM | 4.53 µM | 3.35 µM | 4.02 µM | – | 3.37 µM | 6.91 µM
Brc1ccc2nc(-c3cccs3)nc(N3CCN(c4ccccc4)CC3)c2c1 | – | > 100 µM | > 100 µM | > 100 µM | > 100 µM | > 100 µM | > 100 µM | > 100 µM
CCCC(=O)Oc1c2ccsc2c(OC(=O)CCC)c2ccsc12 | 7.63 µM | 1.59 µM | 6.84 µM | 4.82 µM | – | 7.34 µM | 19.7 µM | 5.11 µM
CC(C)(C)OC(=O)NCC(c1c[nH]c2cc(Br)ccc12)c1c[nH]c2cc(Br)ccc12 | > 100 µM | 83.4 µM | 44.7 µM | 31.4 µM | 49.6 µM | – | 34.7 µM | 34.5 µM
Cc1ccc2c(ccc3ncc(CNc4ccc(NS(C)(=O)=O)cc4)c32)[nH]1 | 44.7 µM | 53.7 µM | 66 µM | 37.9 µM | 34 µM | 33.8 µM | 94.4 µM | 74.7 µM
Nc1nncc2n[nH]nc12 | 91 µM | > 100 µM | > 100 µM | > 100 µM | > 100 µM | > 100 µM | > 100 µM | > 100 µM
C1=C2C3=[N+](CCCC3)CC2Cc2sccc21 (stereo unspecified) | > 100 µM | > 100 µM | > 100 µM | > 100 µM | > 100 µM | > 100 µM | > 100 µM | > 100 µM
COC(=O)c1ccc(NCC2=CC(=O)C=CC2=O)cc1O | > 100 µM | > 100 µM | > 100 µM | 33.8 µM | 42.9 µM | 32.8 µM | 31.4 µM | 25.4 µM
NS(=O)(=O)c1ccc(N=Nc2ccc(O)cc2)cc1 | > 100 µM | > 100 µM | > 100 µM | > 100 µM | 88.9 µM | > 100 µM | > 100 µM | > 100 µM
Cc1cn(CC2(CO)CCC2)c(=O)[nH]c1=O | > 100 µM | > 100 µM | > 100 µM | > 100 µM | > 100 µM | > 100 µM | > 100 µM | > 100 µM
CN1/C(=C\N=O)C(C)(C)N(O)C1(C)C | > 100 µM | > 100 µM | > 100 µM | > 100 µM | > 100 µM | – | > 100 µM | > 100 µM
NC1=Nc2ccccc2Sc2nccn21 | 49.4 µM | > 100 µM | > 100 µM | > 100 µM | 54.3 µM | 75.8 µM | 35.4 µM | 63.9 µM
O=c1c2ccccc2ncn1COCc1ccccc1 | > 100 µM | > 100 µM | > 100 µM | > 100 µM | – | > 100 µM | > 100 µM | > 100 µM
Cc1ccc(C(=O)C2C=C(c3ccc(C)cc3)SC3C=CCC32)cc1 (stereo unspecified) | 44.9 µM | 33.9 µM | 57.1 µM | 27.8 µM | – | 58.4 µM | 38 µM | 29.6 µM
Cn1c2ccccc2c2c3c(c4c5ccccc5n(C)c4c21)C(=O)N(Cc1ccccc1)C3=O | > 100 µM | > 100 µM | > 100 µM | > 100 µM | > 100 µM | > 100 µM | > 100 µM | > 100 µM
O=C1NCN(c2ccccc2)C12CCN(CCCN1CCN(CCOC(c3ccccc3)c3ccccc3)CC1)CC2 | 6.4 µM | 2.42 µM | 7.82 µM | 5.67 µM | 5.46 µM | 6.55 µM | 2.26 µM | 4.39 µM
CCCCCCCCCCCCCC(=O)OCC(CCS(=O)(=O)O[C@H]1CC[C@@]2(C)C(=CC[C@@H]3C2CC[C@]2(C)C(=O)CCC32)C1)OC(=O)CCCCCCCCCCCCC (stereo partly specified) | – | > 100 µM | > 100 µM | > 100 µM | > 100 µM | > 100 µM | > 100 µM | > 100 µM
CCOc1cc2c(cc1O)C=C[C@@H]1[C@@H]2CC[C@]2(C)[C@@H](O)CC[C@@H]12 | 73.1 µM | > 100 µM | > 100 µM | 16 µM | > 58.6 µM | 57.9 µM | 47.2 µM | > 86.1 µM
CCc1cc2c(cc1C(=O)CCC(=O)O)CC1(C2)Cc2cc(CC)c(C(=O)CCC(=O)O)cc2C1 | > 100 µM | > 100 µM | > 100 µM | > 100 µM | > 100 µM | > 100 µM | > 100 µM | > 100 µM
CCOC(=O)C1=NN(c2ccc(C)cc2)C2(c3ccccc3)C=C(c3ccccc3)N(C)CCN12 (stereo unspecified) | > 100 µM | > 100 µM | > 100 µM | > 100 µM | > 100 µM | > 100 µM | > 100 µM | > 100 µM
CCN(CC)CCOCCOCC1(c2ccc(Cl)c(Cl)c2)CCCCC1 | 13.2 µM | 12.3 µM | 23.1 µM | 18.8 µM | 20.4 µM | 27.6 µM | 11.9 µM | 12.9 µM
CC1CN=C(N(C(=O)Nc2ccc(Cl)cc2)c2cccc(Cl)c2)S1 (stereo unspecified) | – | > 100 µM | > 100 µM | > 100 µM | > 100 µM | 91.8 µM | 40.1 µM | > 100 µM
CCCC(=O)Nc1cc(/C=C/C(=O)N2CC(CCl)c3ccc([N+](=O)[O-])cc32)n(C)c1 (stereo unspecified) | – | > 100 µM | > 100 µM | > 100 µM | > 100 µM | – | > 100 µM | > 100 µM
